From patent US6896893B2, “Needle-less parenteral introduction device” (Societe de Conseils de Recherches et d'Applications …, priority 1994, dated 2005) come the findings set out here.

One data set relates to PAF. The data set is described as follows: anti-PAF pharmacological effect, solid form vs conventional administration. Format: in vivo. The source says:
(§1) A synthetic anti-PAF, 4,7,8,10-tetrahydro-1-methyl-6-(2-chlorphenyl)-9-(4-methoxyphenylthiocarbamoyl)-pyrido-[4′,3′-4,5] thieno [3,2-f]-1,2,4-triazolo [4,5-a] 1,4-diazepine, and a natural anti-PAF, ginkgolide B, were compared to conventional administration. The synthetic anti-PAF cannot conventionally be used parenterally because of its insolubility.

Data set [1] is classed as physicochemical. How it is done: (§2) A test was conducted with Insulin Human Recombinant (IHR) and Insulin Bovine Pancreas (IBP). […] IHR and IBP represent about 26 Insulin Units (IU) per mg.
as §1

The nature of data set [2]: pharmacokinetic profiles of injected tablets vs conventional solutions. Format: in vivo. As to conditions: tablets with gelatin and PVP 5-10%. How it is done: A formulation of a somatostatin analogue, D-Nal-cyclo [Cys-Tyr-D-Trp-Lys-Val-Cys]-Thr-NH2 was made into injectable tablets by associating the dry material with gelatin and polyvinylpyrrolidone (PVP, 5-10%). The tablets were injected and compared to conventional solutions in terms of pharmacokinetic profiles.

A short description of data set [3]: insulin unit content per mg. The method, then:
as §2

For the compound `COc1ccc(NC(=S)N2CCc3c(sc4c3C(c3ccccc3Cl)=NCc3nnc(C)n3-4)C2)cc1` [synthetic anti-PAF, 4,7,8,10-tetrahydro-1-methyl-6-(2-chlorphenyl)-9-(4-methoxyphenylthiocarbamoyl)-pyrido-[4′,3′-4,5] thieno [3,2-f]-1,2,4-triazolo [4,5-a] 1,4-diazepine], the “correlation between pharmacological effect and blood concentration” value in the data set with PAF (solid form) is “very good correlation”. In addition, in data set [1], the water solubility result is on record as “insolubility”.
Regarding “D-Nal-cyclo [Cys-Tyr-D-Trp-Lys-Val-Cys]-Thr-NH2”, the “pharmacokinetic profile / pharmacological results, injected tablets vs conventional solutions” value in data set [2] was “substantially the same pharmacological results”.
For the compound `CC1C(=O)OC2C(O)C34C5CC(C(C)(C)C)C36C(OC(=O)C6O)OC4(C(=O)O5)C12O` (centres unmarked) [ginkgolide B], the “effect after initial injection, solid vs solution” value in the data set on PAF (same dose, solution pH 8.75) is recorded as “the effect was the same after initial injection”. The duration of effect with PAF (solid dry formulation, same dose) is 24 h; with PAF (solution form (pH 8.75), same dose) it was 2 h. For the same compound, the water solubility entry in data set [1] is on record as “slightly soluble”.
In the case of Insulin Bovine Pancreas [IBP], in data set [3], the “Insulin Units (IU) per mg” value is given as “about 26 IU per mg”. Further, the water solubility result in data set [1] is listed as “water insoluble”.
For Insulin Human Recombinant [IHR] the same measures were “about 26 IU per mg” and “water soluble”.
